The text below walks through data of patent US20040091853A1 (priority 2003, published 2004).

Like-named read-outs stand apart in the source and are kept apart here.

In experiment [1] the test system is pNL4-3-derived HIV reporter particles. The format is cell-based.
Experiment [2] has the same test system. In kind it is cell-based. The note with it: particles made in presence of 1 μM inhibitor; supernatants tested on target cells.
For experiment [3], the system named is VSV-G-enveloped particles. The format is cell-based, HIV.

Turning to `CCc1cc(NCc2nc3c(Cl)ccc(Cl)c3o2)c(O)nc1C` [L-697661], in experiment [1], the “effect on ability of HIV reporter particle to transfer β-lactamase to target cells” value is on record as “had no effect” and the “percentage of blue cells” value is 10-20% blue cells. For the same compound, the “percentage of blue cells” value in experiment [2] is recorded as “˜10-20% blue cells”.

As for `Cl.N` [NH4Cl], in experiment [3], the “blue cells in presence versus absence of NH4Cl” value is listed as “significantly fewer blue cells” and the “percentage of blue cells” value is listed as “˜10% blue cells”. Also, in experiment [1], the “blocking of transfer of β-lactamase” value is “did not block transfer of β-lactamase” and the “percentage of blue cells” value is reported as “˜10% blue cells”.

In the case of enfuvirtide, the “blocking of transfer of β-lactamase to target cells” value in experiment [3] is listed as “neither agent blocked transfer of β-lactamase”; in experiment [1] it was “blocked the transfer of β-lactamase to target cells”.
